Assays:
[1] = Selectivity index, ratio of IC50 for African green monkey Vero cells to IC50 for Trypanosoma cruzi TINF/CH/1956/Tulahuen DTU 6 epimastigotes; type: toxicity; conditions: read-out: Ratio IC50
Trypanosoma cruzi [2] = assay: Trypanocidal activity against Trypanosoma cruzi MHOM/Pe/2011/Arequipa DTU 5 epimastigotes after 72 hrs by resazurin dye based assay; type: functional, organism-based; conditions: MHOM/Pe/2011/Arequipa DTU 5, 72 h
Vero = assay: Cytotoxicity against African green monkey Vero cells assessed as reduction in cell viability after 72 hrs by resazurin dye based assay; conditions: Chlorocebus sabaeus
Trypanosoma cruzi [3] = assay: Trypanocidal activity against Trypanosoma cruzi IRHOD/CO/2008/SN3 DTU 1 epimastigotes after 72 hrs by resazurin dye based assay; type: functional, organism-based; conditions: IRHOD/CO/2008/SN3 DTU 1, 72 h
[4] = Selectivity index, ratio of IC50 for African green monkey Vero cells to IC50 for Trypanosoma cruzi MHOM/Pe/2011/Arequipa DTU 5 epimastigotes; type: toxicity; conditions: read-out: Ratio IC50
Trypanosoma cruzi [5] = assay: Trypanocidal activity against Trypanosoma cruzi TINF/CH/1956/Tulahuen DTU 6 epimastigotes after 72 hrs by resazurin dye based assay; type: functional, organism-based; conditions: TINF/CH/1956/Tulahuen DTU 6, 72 h
[6] = Selectivity index, ratio of IC50 for African green monkey Vero cells to IC50 for Trypanosoma cruzi IRHOD/CO/2008/SN3 DTU 1 epimastigotes; type: toxicity; conditions: read-out: Ratio IC50
[7] = Selectivity index, ratio of IC50 for African green monkey Vero cells to IC50 for Trypanosoma cruzi IRHOD/CO/2008/SN3 DTU 1 amastigotes infected in African green monkey Vero cells; type: toxicity; conditions: read-out: Ratio IC50
[8] = Selectivity index, ratio of IC50 for African green monkey Vero cells to IC50 for Trypanosoma cruzi IRHOD/CO/2008/SN3 DTU 1 trypomastigotes derived from infected Balb/c mouse; type: toxicity; conditions: read-out: Ratio IC50
Trypanosoma cruzi [9] = assay: Trypanocidal activity against Trypanosoma cruzi IRHOD/CO/2008/SN3 DTU 1 amastigotes infected in African green monkey Vero cells after 72 hrs by Giemsa-staining based microscopic assay; type: functional, organism-based; conditions: IRHOD/CO/2008/SN3 DTU 1, Vero
[10] = Selectivity index, ratio of IC50 for African green monkey Vero cells to IC50 for Trypanosoma cruzi TINF/CH/1956/Tulahuen DTU 6 trypomastigotes derived from infected Balb/c mouse; type: toxicity; conditions: read-out: Ratio IC50
Trypanosoma cruzi [11] = assay: Trypanocidal activity against Trypanosoma cruzi MHOM/Pe/2011/Arequipa DTU 5 trypomastigotes derived from infected Balb/c mouse after 72 hrs by resazurin dye based assay; type: functional, organism-based; conditions: MHOM/Pe/2011/Arequipa DTU 5, 72 h
[12] = Selectivity index, ratio of IC50 for African green monkey Vero cells to IC50 for Trypanosoma cruzi MHOM/Pe/2011/Arequipa DTU 5 amastigotes infected in African green monkey Vero cells; type: toxicity; conditions: read-out: Ratio IC50
[13] = Selectivity index, ratio of IC50 for African green monkey Vero cells to IC50 for Trypanosoma cruzi TINF/CH/1956/Tulahuen DTU 6 amastigotes infected in African green monkey Vero cells; type: toxicity; conditions: read-out: Ratio IC50
Trypanosoma cruzi [14] = assay: Trypanocidal activity against Trypanosoma cruzi TINF/CH/1956/Tulahuen DTU 6 amastigotes infected in African green monkey Vero cells after 72 hrs by Giemsa-staining based microscopic assay; type: functional, organism-based; conditions: TINF/CH/1956/Tulahuen DTU 6, Vero
[15] = Selectivity index, ratio of IC50 for African green monkey Vero cells to IC50 for Trypanosoma cruzi MHOM/Pe/2011/Arequipa DTU 5 trypomastigotes derived from infected Balb/c mouse; type: toxicity; conditions: read-out: Ratio IC50
Trypanosoma cruzi [16] = assay: Trypanocidal activity against Trypanosoma cruzi TINF/CH/1956/Tulahuen DTU 6 trypomastigotes derived from infected Balb/c mouse after 72 hrs by resazurin dye based assay; type: functional, organism-based; conditions: TINF/CH/1956/Tulahuen DTU 6, 72 h
Trypanosoma cruzi [17] = assay: Trypanocidal activity against Trypanosoma cruzi IRHOD/CO/2008/SN3 DTU 1 trypomastigotes derived from infected Balb/c mouse after 72 hrs by resazurin dye based assay; type: functional, organism-based; conditions: IRHOD/CO/2008/SN3 DTU 1, 72 h
Trypanosoma cruzi [18] = assay: Trypanocidal activity against Trypanosoma cruzi MHOM/Pe/2011/Arequipa DTU 5 amastigotes infected in African green monkey Vero cells after 72 hrs by Giemsa-staining based microscopic assay; type: functional, organism-based; conditions: MHOM/Pe/2011/Arequipa DTU 5, Vero

Compound | selectivity ratio [1] | IC50 (Trypanosoma cruzi [2]) [µM] | IC50 (Vero) [µM] | IC50 (Trypanosoma cruzi [3]) [µM] | selectivity ratio [4] | IC50 (Trypanosoma cruzi [5]) [µM] | selectivity ratio [6] | selectivity ratio [7] | selectivity ratio [8] | IC50 (Trypanosoma cruzi [9]) [µM] | selectivity ratio [10] | IC50 (Trypanosoma cruzi [11]) [µM] | selectivity ratio [12] | selectivity ratio [13] | IC50 (Trypanosoma cruzi [14]) [µM] | selectivity ratio [15] | IC50 (Trypanosoma cruzi [16]) [µM] | IC50 (Trypanosoma cruzi [17]) [µM] | IC50 (Trypanosoma cruzi [18]) [µM]
CCCCCCCCNc1c(N(C)CCCN(C)C)c(=O)c1=O | 14.2 | 102 | 1150 | 87.8 | 11.4 | 82 | 13.2 | – | – | – | – | – | – | – | – | – | – | – | –
CN(C)CCCN(C)c1c(NCCCN(C)CCCNc2c(N(C)CCCN(C)C)c(=O)c2=O)c(=O)c1=O | 9 | 177 | 2170 | 311 | 12.2 | 241 | 7 | – | – | – | – | – | – | – | – | – | – | – | –
CN(C)CCCN(C)c1c(N(C)CCCN(C)C)c(=O)c1=O | 3.2 | 107 | 1140 | 404 | 10.6 | 360 | 2.8 | – | – | – | – | – | – | – | – | – | – | – | –
CCCCCCCCCCCCNc1c(N(C)CCCN(C)C)c(=O)c1=O | 2.6 | 64.6 | 128 | 37.5 | 2 | 49.5 | 3.4 | – | – | – | – | – | – | – | – | – | – | – | –
CCCCCCCCCCCCCCCCOP(=O)([O-])OCC[N+](C)(C)C [MILTEFOSINE] | 0.9 | 20.8 | 21.6 | 55.9 | 1 | 22.9 | 0.4 | 0.5 | 0.6 | 39.7 | 1.1 | 18.8 | 0.7 | 0.7 | 31.8 | 1.2 | 20.1 | 34.8 | 29.6
CN(C)CCCN(C)c1c(N)c(=O)c1=O | 25.1 | 42.3 | 1070 | 33.7 | 25.3 | 42.6 | 31.8 | 17.1 | 35.4 | 62.6 | 31.8 | 33.2 | 27 | 20.8 | 51.3 | 32.2 | 33.6 | 30.2 | 39.6
CCCCNc1c(N(C)CCCN(C)C)c(=O)c1=O | 48.3 | 12.4 | 439 | 15.2 | 35.4 | 9.1 | 28.9 | 33.5 | 58.6 | 13.1 | 49.3 | 10.4 | 29.9 | 37.5 | 11.7 | 42.2 | 8.9 | 7.5 | 14.7
CCCCCCCCCCCC[N+](C)(C)CCCN(C)c1c(OCC)c(=O)c1=O | 4 | 63.3 | 353 | 74.5 | 5.6 | 89.1 | 4.7 | – | – | – | – | – | – | – | – | – | – | – | –
CCCCCCCCCCCC[N+](C)(C)CCCN(C)c1c(O)c(=O)c1=O | 2.4 | 22.1 | 160 | 33.1 | 7.2 | 66.1 | 4.8 | – | – | – | – | – | – | – | – | – | – | – | –
CCCCCCCCCCCCOc1c(N(C)CCCN(C)C)c(=O)c1=O | 19.9 | 36.2 | 291 | 19.4 | 8 | 14.6 | 15 | 10.3 | 12.1 | 28.4 | 15.3 | – | – | 11.4 | 25.5 | – | 19.1 | 24.1 | –
CCNc1c(N(C)CCCN(C)C)c(=O)c1=O | 32.4 | 41.3 | 900 | 41 | 21.8 | 27.8 | 22 | 16.5 | 32.1 | 54.5 | 33.8 | 29.1 | 32.3 | 28.5 | 31.6 | 30.9 | 26.6 | 28 | 27.8
